Test results as given in patent publication US20130045890A1, “TEST FOR MALE FERTILITY” (Rigshospitalet Copenhagen University Hospital, priority 2010, published 2013).
Values joined by “and” are separate entries in the source; they are usually repeats but may differ in a detail not shown here. Equal values may be shown once. “Also recorded” adds a separate entry of the source.

What was measured:
human spermatozoa [1] = test: Induction of sperm motility (ABC motility) in semen samples in vitro; conditions: for sperm motility (ABC) in young normal men: 1 nM 1,25(OH)2D3, p=0.01; for sperm motility in infertile/subfertile men: 1 nM 1,25(OH)2D3, p=0.80
Procedure: The preparation was placed on the heating stage of a microscope at 37° C. and immediately examined at x400 magnification counting 200 spermatozoa. The sperm were classified as progressive motile (WHO class A+B), non-progressive motile (class C) or immotile (class D). The motility counting was repeated on a second aliquot of 10 μl well-mixed semen.
The participants produced a semen sample by masturbation. Self-reported information of duration of ejaculation abstinence was obtained. Trained technicians conducted semen analysis Semen volume was estimated by weighing. For sperm motility assessment, duplicates of 10 μl of well-mixed semen were placed on a glass slide, examined on a heating stage kept at 37° C., under a microscope at ×400 magnification, and spermatozoa were classified as progressive motile (WHO class A+B), non-progressive motile (class C) or immotile (class D). The average of the two motility assessments was used. For the assessment of the sperm concentration the samples were diluted in a solution of 0.6 mol/l NaHCO3 and 0.4% (v/v) formaldehyde in distilled water, and subsequently assessed using Bürker-Türk haemocytometer. Only spermatozoa with tails were counted. Finally, smears were prepared, Papanicolaou stained and spermatozoa morphology assessed according to strict criteria.
Their semen samples were assessed as described above. […] Motility assessment was conducted in 17 samples (in duplicates) under non-capacitating conditions (in their seminal plasma), and 3 samples were also analyzed in capacitating conditions. 7 consecutively included men were used to investigate a dose-response relationship between VD and sperm motility.

human spermatozoa [2] = test: Intracellular free calcium ([Ca2+]i) by single cell fura-2 imaging in human spermatozoa; format: cell-based; conditions: for effect of non-genomic VDR antagonist pretreatment on the calcium response to 1,25(OH)2D3: pretreatment 1-40 μM
Procedure: The intracellular free calcium concentration ([Ca2+]i) was measured in human spermatozoa from 12 normal men. Freshly delivered semen samples went through percoll density gradient centrifugation to optimize the number of spermatozoa expressing VDR and the metabolising enzymes. […] Subsequently 80 μl sperm content were diluted in 920 μl Krebs-Ringer buffer and were loaded on polynysine-coated chambers to minimize movement of the vital spermatozoa (Lab-Tek; Nalge Nunc International, USA).
Excitation was obtained by a Polychrome V illuminator from Till Photonics (Germany) and images were acquired using a Cool Snap CCD camera (Photometrics, USA) from Robert Scientific (Malaysia).
After background subtraction, ratio images were formed using MetaFluor software.
Semen samples were separated by percoll density gradient centrifugation to ensure viable and motile spermatozoa and resuspended in capacitating media for 1.5 hours. Afterwards, loaded with 3 μM of the fluorescent probe (intracellular calcium binding) fura-2/AM (Invitrogen, USA) for 30 min, centrifuged (10 min at 300 g) and washed with Krebs-Ringer buffer (120 mM NaCl, 15 mM NaHCO3, 5 mM KCl, 1 mM CaCl2, 5 mM Na2HPO4, 1 mM MgCl2 pH 7.3). […] Subsequently, 80 μl of the sperm sample was diluted in 920 μl Krebs-Ringer buffer and loaded on polylysine-coated chambers to minimize movement of the spermatozoa (Lab-Tek; Nalge Nunc International, USA). […] Excitation was obtained by a Polychrome Villuminator from Till Photonics (Germany) and images were acquired using a Cool Snap CCD camera (Photometrics, USA) from Robert Scientific (Malaysia). […] After background subtraction, ratio images were formed using MetaFluor software.
All experiments started by using low magnification to ensure visibility of several spermatozoa simultaneously. […] All measurements of [Ca2+]i were based upon evaluation of at least three spermatozoa simultaneously (see exact number in figure legends), and were repeated in at least three separate experiments. We used 10 different semen donors to ensure that all experiments were reproduced on semen samples from at least two different men.

human spermatozoa [3] = test: Acrosome reaction of motile spermatozoa (Pisum sativum agglutinin-FITC staining); format: cell-based
Procedure: Acrosome status was assessed according to a modified version of the method described by Cross et al. 1986. […] . When more than half the head of a spermatozoon was brightly and uniformly fluorescent, the acrosome was considered to be intact. Spermatozoa without fluorescence or with a fluorescing band limited to the equatorial segment were considered to be acrosome-reacted. Spermatozoa with a fluorescing band limited to the equatorial segment were named eq-AR. The person assessing the slides was blinded to the treatment of the sample.

[4] = 1,25(OH)2D3 after pretreatment with nifedipine 10 μM
[5] = higher 1,25(OH)2D3 concentrations

SMILES: C=C1/C(=C\C=C2/CCC[C@]3(C)[C@@H]([C@H](C)CCCC(C)(C)O)CC[C@@H]23)C[C@@H](O)C[C@@H]1O [1,25(OH)2D3, 1,25-dihydroxyvitamin D3]
- sperm motility (ABC) in young normal men (human spermatozoa [1]): increased significantly; also recorded: modest increase in sperm motility
- sperm motility (ABC) in young normal men (human spermatozoa [1]; listed as calcitriol): significant increase in normal men
- sperm motility in infertile/subfertile men (human spermatozoa [1]): did not increase; also recorded: no increase in sperm motility
- sperm motility in infertile/subfertile men (human spermatozoa [1]; listed as activated VD): did not increase in sperm motility
- sperm motility in infertile/subfertile men (human spermatozoa [1]; listed as calcitriol): unable to increase motility in infertile men
- increase in median sperm motility (ABC) (human spermatozoa [1]; 1,25(OH)2D3 10-14M to 10^-9M, dose-response, 7 men): 2-7%
- median decrease in sperm motility compared with control (human spermatozoa [1]; 1,25(OH)2D3 10^-5M): 15%
- median increase in sperm motility (ABC) (human spermatozoa [1]; 1,25(OH)2D3 10^-9M, p=0.006): 7%
- sperm motility (human spermatozoa [1]; 1,25(OH)2D3 concentrations above 10^-7M): decreased motility compared with control
- increase in mean sperm motility (human spermatozoa [1]; 10^-9M 1,25(OH)2D3, 30 min, room temperature, 17 men, p=0.010): 2.9%
- effect of pre-treatment with 1,25(OH)2D3 on the calcium effect of progesterone (human spermatozoa [2]): could not be abrogated
- maximum amplitude of the calcium increase, higher than baseline calcium level (human spermatozoa [2]; 1 nM 1,25(OH)2D3): 5-10 fold
- calcium response in non-capacitating media (human spermatozoa [2]; 1 nM 1,25(OH)2D3, versus capacitating media): lower amplitude
- amplitude relative to the amplitude elicited by 10 μM progesterone (human spermatozoa [2]; 1,25(OH)2D3 (1 nM elsewhere in the source)): 40% and 40-80%
- effect on intracellular calcium (human spermatozoa [2]; 1,25(OH)2D3, printed range 50 μM-10 μM, 100 μM-10 μM): induced a rapid increase in intracellular calcium
- increase in intracellular calcium from baseline (human spermatozoa [2]; 1,25(OH)2D3 added to motile spermatozoa, calcium containing medium): 5-10 fold
- length of repolarisation phase (human spermatozoa [2]; [4]): 4 min
- maximum amplitude of calcium increase, higher than baseline (human spermatozoa [2]; [4]): 7 fold
- threshold for the observed all-or-nothing calcium response (human spermatozoa [2]; 1,25(OH)2D3 concentration): 10 to 50 µM
- duration of plateau phase (human spermatozoa [2]; <10 nM 1,25(OH)2D3): up to 50 sec
- start of the calcium increase in the neck region (human spermatozoa [2]; after addition of 1,25(OH)2D3): ≤ 5 s
- increase in [Ca2+]i in calcium free media with EGTA (words) (human spermatozoa [2]; calcium free media, 5 μM EGTA): Neither, 1,25(OH)2D3 nor progesterone were able to induce an increase in intracellular calcium; also recorded: could not induce an increase in [Ca2+]i
- dependence of amplitude on concentration (human spermatozoa [2]; [5]): did not seem to increase markedly with higher concentration; also recorded: did not increase with higher 1,25(OH)2D3 concentrations
- duration of plateau phase (human spermatozoa [2]; [5]): 50 to 300 s
- calcium response in calcium free media without EGTA (human spermatozoa [2]; potentially contaminated [Ca2+]<5 uM): marked response; also recorded: increased intracellular calcium rapidly
- median percentage of spermatozoa with an equatorial band (eq. AR) (human spermatozoa [3]; 1,25(OH)2D3 10^-9M (control 4.7%), p=0.214): 5.3%
- median percentage of acrosome reacted spermatozoa (human spermatozoa [3]; 1,25(OH)2D3 10^-9M, capacitating media (control 12%)): 21%
- average increase in acrosome reacted spermatozoa (human spermatozoa [3]; 1,25(OH)2D3 10^-9M, capacitating media, p=0.024): 6%
- acrosome reacted spermatozoa in non-capacitating conditions (human spermatozoa [3]; NaCl, 6 men, VD treated (control 3.7%)): 4.2%

SMILES: C=C1/C(=C\C=C2/CCC[C@]3(C)[C@@H]([C@H](C)CCCC(C)(C)O)CC[C@@H]23)C[C@@H](O)C[C@H]1O [1β, 25(OH)2D3]
- effect of non-genomic VDR antagonist pretreatment on the calcium response to 1,25(OH)2D3 (human spermatozoa [2]; 1 nM calcitriol): completely blocked; also recorded: abrogated the response to 1,25(OH)2D3 completely
- effect of non-genomic VDR antagonist pretreatment on the calcium response to 1,25(OH)2D3 (human spermatozoa [2]; 1 nM calcitriol, listed as 1β,25(OH) 2D3): blocked completely

SMILES: C=C1CC[C@H](O)C/C1=C/C=C1\CCC[C@]2(C)[C@@H]([C@H](C)CCCC(C)(C)O)CC[C@@H]12 [25-OH D3, 25-hydroxycholecalciferol]
- effect on intracellular calcium (human spermatozoa [2]; 25-OH D3 up to 100 nM, normal media): no effect on intracellular calcium levels
- effect on intracellular calcium (human spermatozoa [2]; 25-OH D3 up to 100 nM, normal media, listed as 25-0H D3): unable to elicit an increase in [Ca2+]i

SMILES: COc1ccc2c(c1)CC[C@@H]1[C@@H]2CC[C@]2(C)[C@@H](NCCCCCCN3C(=O)C=CC3=O)CC[C@@H]12 [U73122, 1-[6-[[17fi-3-methoxyestra-1,3,5(10)-trien-17-yl]amino]hexyl]-1H-pyrrole-2,5-dione]
- effect on the calcium response to 1,25(OH)2D3 (human spermatozoa [2]; 2 μM U73122, no concentration): unable to induce a rapid increase in [Ca2+]i; also recorded: caused a delayed and diminished response to 1,25(OH)2D3
- effect on the rapid calcium increase elicited with 1 nM 1,25(OH)2D3 (human spermatozoa [2]; 5 μM U73122): delayed in these spermatozoa and the amplitude was smaller or absent
- spermatozoa that remained low and stable in intracellular calcium (human spermatozoa [2]; 5 μM U73122, normal calcium containing media): 10-20%
- increase of baseline [Ca2+]i (human spermatozoa [2]; 10 μM U73122): more than 5 fold
- spermatozoa that increased their baseline [Ca2+]i (human spermatozoa [2]; 10 μM U73122): > 80%
- effect of PLC inhibition on the calcium effect of progesterone (human spermatozoa [2]; U73122): unable to abrogate the effect of progesterone

SMILES: C=C1/C(=C\C=C2/CCC[C@]3(C)[C@@H]([C@H](C)/C=C/[C@@H](O)C4(C(=O)OCCCC)CC4)CC[C@@H]23)C[C@@H](O)C[C@@H]1O [ZK159222]
- effect of nuclear VDR antagonist on the calcium response to 1,25(OH)2D3 (human spermatozoa [2]; ZK159222 0.1-100 μM, 1 nM calcitriol): could not be abrogated; also recorded: unable to abrogate or suppress the effect of 1,25(OH)2D3 treatment

SMILES: C[C@H](CCC(=O)O)C[C@H](C)C[C@H](C)C(=O)/C=C(\O)[C@H](C)C[C@H](C)C/C=C/[C@@H](C)[C@@H](O)[C@@H](C)[C@@H](O)C[C@@H]1CC[C@@](C)([C@H]2CC[C@@](C)([C@@H](C)O)O2)O1 [ionomycin]
- increase in [Ca2+]i in calcium free media with EGTA (words) (human spermatozoa [2]; ionomycin 500 nM): low but significant increase in the intracellular calcium; also recorded: elicited only a small Ca2+ rise
- amplitude of the response from baseline (human spermatozoa [2]; ionomycin 500 nM, calcium free media with EGTA): < 3 fold
- increase in [Ca2+]i in calcium free media with EGTA (words) (human spermatozoa [2]; ionomycin 500 nM, listed as Ionomycin): low but reproducible increase in [Ca2+]i

SMILES: CC(=O)[C@H]1CC[C@H]2[C@@H]3CCC4=CC(=O)CC[C@]4(C)[C@H]3CC[C@]12C [progesterone]
- increase in [Ca2+]i in calcium free media with EGTA (words) (human spermatozoa [2]; calcium free media, 5 μM EGTA): Neither, 1,25(OH)2D3 nor progesterone were able to induce an increase in intracellular calcium; also recorded: could not induce an increase in [Ca2+]i

SMILES: C/C=C(/C)C(=O)O[C@H]1C(C)=C2[C@H]([C@@H]1OC(=O)CCCCCCC)[C@@](C)(OC(C)=O)C[C@H](OC(=O)CCC)[C@@]1(O)[C@H]2OC(=O)[C@@]1(C)O [thapsigargin]
- effect on baseline calcium concentration (human spermatozoa [2]; thapsigargin 4 μM): caused a slow increase in baseline calcium concentration
- calcium response to 1,25(OH)2D3 after thapsigargin (human spermatozoa [2]; thapsigargin 4 μM, 1,25(OH)2D3 added 9 min later): unable to elicit a substantial calcium response; also recorded: diminished the effect of 1,25(OH)2D3
- stable plateau, higher than baseline calcium concentration (human spermatozoa [2]; thapsigargin 4 μM, nine minutes after exposure): 3 fold
- calcium response to 1,25(OH)2D3 after thapsigargin (human spermatozoa [2]; thapsigargin <1 μM): unable to abrogate the effect of 1,25(OH)2D3
